This passage reports inhibition results from patent US10106556B2, “Heterocyclic compound” (TAKEDA PHARMACEUTICAL COMPANY LIMITED, priority 2015, dated 2018).

The assay has as its target T1, His-hMAGL (recombinant polyhistidine tagged human MAGL protein) (Homo sapiens, UniProt Q99685).
T1 construct: made in house; host or cells: E. coli BL21(DE3)
T1 sequence (Q99685 1-303): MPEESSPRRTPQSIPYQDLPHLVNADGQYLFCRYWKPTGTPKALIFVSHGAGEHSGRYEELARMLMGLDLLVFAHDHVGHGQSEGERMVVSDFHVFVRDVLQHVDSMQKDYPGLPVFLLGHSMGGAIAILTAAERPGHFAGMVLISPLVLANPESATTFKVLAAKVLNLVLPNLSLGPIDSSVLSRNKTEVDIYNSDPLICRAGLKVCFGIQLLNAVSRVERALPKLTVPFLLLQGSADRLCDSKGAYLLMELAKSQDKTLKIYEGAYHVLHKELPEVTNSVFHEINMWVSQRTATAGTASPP
Kind of assay: Measurement of MAGL inhibitory activity (arachidonic acid production from 2-arachidonylglycerol, RapidFire-mass spectrometry). In kind it is biochemical. As to conditions: MAGL inhibitory rate at 10 μM test compound; 60 min preincubation with His-hMAGL, 2-arachidonylglycerol substrate, 10 min reaction at room temperature. As to the method:
Furthermore, acetonitrile (50 μL) containing 3 μM arachidonic acid-d8 (Cayman Chemical Company) was added and the mixture was stirred.
The amount of arachidonic acid in the obtained enzyme reaction mixture was calculated by measuring by RapidFire-mass spectrometry and correcting by the amount of arachidonic acid-d8. High Throughput online solid phase extraction was performed using RapidFire 300™ system (Agilent Technologies, Inc.). Samples were loaded on SPE C4 cartridge (Agilent Technologies, Inc.) and desalted with 0.2 (v/v) % acetic acid (Wako Pure Chemical Industries, Ltd.) in ultrapure water/acetonitrile (70/30, v/v) at a flow rate of 1.5 mL/min, eluted at a flow rate of 0.5 mL/min with 0.2 (v/v) % acetic acid dissolved in acetonitrile/ultrapure water (90/10, v/v), and injected into the mass spectrometry part. The injection needle was washed with ultrapure water (500 millisecond) and acetonitrile (500 millisecond) to minimize carry-over. […] The RapidFire300 system was controlled by RapidFire UI software version 3.6 (Agilent Technologies, Inc.).
The mass spectrometry of the resultant product was performed using API4000™ triple quadrupole mass spectrometer (AB SCIEX) equipped with an electrospray ion sauce (TurboIon Spray™) in a negative selected reaction monitoring (SRM) mode. The conditions of SRM are shown below. The parameters of the instrument were optimized as follows: capillary temperature 600° C., ion spray voltage −4.5 kV, collision gas 8, curtain gas 15 psi, ion source gas 1 60 psi, ion source gas 2 60 psi. The mass spectrometer was controlled by Analyst™ software version 1.5.1 (AB SCIEX). The peak area integration was analyzed using RapidFire integrator software version 3.6 (Agilent Technologies, Inc.).
MAGL inhibitory rate (%) was calculated according to the following calculation formula. (1−(arachidonic acid production amount of test compound addition group−arachidonic acid production amount of enzyme−free group)÷(arachidonic acid production amount of test compound-free group−arachidonic acid production amount of enzyme-free group))×100
On to `O=C1COc2ncc(C(=O)N3CCC(COc4ccc(Cl)cc4)CC3)cc2N1` [Example 6, 7-((4-((4-chlorophenoxy)methyl)piperidin-1-yl)carbonyl)-1H-pyrido[2,3-b][1,4]oxazin-2(3H)-one], for which the inhibition at 10 µM turned out to be 98%.
For `O=C1COc2ncc(C(=O)N3CCC(COc4ccccc4Cl)CC3)cc2N1` [Example 7, 7-((4-((2-chlorophenoxy)methyl)piperidin-1-yl)carbonyl)-1H-pyrido[2,3-b][1,4]oxazin-2(3H)-one], the inhibition at 10 µM was 100%.
Regarding `O=C1COc2ccc(C(=O)N3CCC(COc4ccccc4)CC3)cc2N1` [Example 12, 6-((4-(phenoxymethyl)piperidin-1-yl)carbonyl)-2H-1,4-benzoxazin-3(4H)-one], the inhibition at 10 µM came to 99%.
Next, `O=C1COc2ncc(C(=O)N3CCC(COc4cccc(Cl)c4)CC3)cc2N1` [Example 13, 7-((4-((3-chlorophenoxy)methyl)piperidin-1-yl)carbonyl)-1H-pyrido[2,3-b][1,4]oxazin-2(3H)-one]: 99%.
Consider `O=C1COc2ncc(C(=O)N3CC(COCc4ccccc4)C3)cc2N1` [Example 14, 7-((3-((benzyloxy)methyl)azetidin-1-yl)carbonyl)-1H-pyrido[2.3-b][1,4]oxazin-2(3H)-one], for which the inhibition at 10 µM was 80%.
Next, `O=C1COc2ncc(C(=O)N3CCC(COc4ccc(Cl)cc4Cl)CC3)cc2N1` [Example 17, 7-((4-((2,4-dichlorophenoxy)methyl)piperidin-1-yl)carbonyl)-1H-pyrido[2,3-b][1,4]oxazin-2 (3H)-one]: 101%; `O=C1COc2ncc(C(=O)N3CCC(COc4cc(Cl)ccc4Cl)CC3)cc2N1` [Example 18, 7-((4-((2,5-dichlorophenoxy)methyl)piperidin-1-yl)carbonyl)-1H-pyrido[2,3-b][1,4]oxazin-2(3H)-one]: 100%; `O=C1COc2ncc(C(=O)N3CCC(COc4ccccc4C(F)(F)F)CC3)cc2N1` [Example 19, 7-((4-((2-(trifluoromethyl)phenoxy)methyl)piperidin-1-yl)carbonyl)-1H-pyrido [2,3-b][1,4]oxazin-2(3H)-one]: 100%.
Take `O=C1COc2ncc(C(=O)N3CCC(COc4cc(F)ccc4Cl)CC3)cc2N1` [Example 21, 7-((4-((2-chloro-5-fluorophenoxy)methyl)piperidin-1-yl)carbonyl)-1H-pyrido[2,3-b][1,4]oxazin-2(3H)-one]: the inhibition at 10 µM was found to be 99%.
Take `O=C1COc2ncc(C(=O)N3CCC(COc4c(F)cccc4Cl)CC3)cc2N1` [Example 22, 7-((4-((2-chloro-6-fluorophenoxy)methyl)piperidin-1-yl)carbonyl)-1H-pyrido[2,3-b][1,4]oxazin-2(3H)-one]: the inhibition at 10 µM was determined as 95%.
Next, `O=C1COc2ccc(C(=O)N3CCC(COc4ccc(Cl)cc4Cl)CC3)cc2N1` [Example 23, 6-((4-((2,4-dichlorophenoxy)methyl)piperidin-1-yl)carbonyl)-2H-1,4-benzoxazin-3(4H)-one]: 100%; `O=C1COc2ccc(C(=O)N3CCC(COc4ccccc4Cl)CC3)cc2N1` [Example 24, 6-((4-((2-chlorophenoxy)methyl)piperidin-1-yl)carbonyl)-2H-1,4-benzoxazin-3 (4H)-one]: 101%; `O=C1COc2ncc(C(=O)N3CCC(COc4cccc(Cl)c4Cl)CC3)cc2N1` [Example 25, 7-((4-((2,3-dichlorophenoxy)methyl)piperidin-1-yl)carbonyl)-1H-pyrido[2,3-b][1,4]oxazin-2(3H)-one]: 100%.
Next, `O=C1COc2ccc(C(=O)N3CCC(COc4ccc(F)cc4Cl)CC3)cc2N1` [Example 26, 6-((4-((2-chloro-4-fluorophenoxy)methyl)piperidin-1-yl)carbonyl)-2H-1,4-benzoxazin-3 (4H)-one]: 101%; `O=C1COc2ccc(C(=O)N3CCC(F)(COc4ccc(F)cc4Cl)CC3)cc2N1` [Example 27, 6-((4-((2-chloro-4-fluorophenoxy)methyl)-4-fluoropiperidin-1-yl)carbonyl)-2H-1,4-benzoxazin-3(4H)-one]: 101%; `O=C1Cc2ccc(C(=O)N3CCC(COc4ccccc4Cl)CC3)cc2N1` [Example 28]: 100%.
For `O=C(c1ccc2oc(=O)[nH]c2c1)N1CCC(COc2ccccc2Cl)CC1` [Example 29, 5-((4-((2-chlorophenoxy)methyl)piperidin-1-yl)carbonyl)-1,3-benzoxazol-2(3H)-one], the inhibition at 10 µM worked out at 96%.
Turning to `N#Cc1ccccc1OCC1CCN(C(=O)c2ccc3c(c2)NC(=O)CO3)CC1` [Example 30, 2-((1-((3-oxo-3,4-dihydro-2H-1,4-benzoxazin-6-yl)carbonyl)piperidin-4-yl)methoxy)benzonitriie], the inhibition at 10 µM was found to be 98%.
In the case of `O=C1COc2ccc(C(=O)N3CCC(COc4cc(F)ccc4Cl)CC3)cc2N1` [Example 31, 6-((4-((2-chloro-5-fluorophenoxy)methyl)piperidin-1-yl)carbonyl)-2H-1,4-benzoxazin-3(4H)-one], the inhibition at 10 µM was found to be 97%.
`O=C1COc2c(F)cc(C(=O)N3CCC(COc4ccc(F)cc4Cl)CC3)cc2N1` [Example 32, 6-((4-((2-chloro-4-fluorophenoxy)methyl)piperidin-1-yl)carbonyl)-8-fluoro-2H-1,4-benzoxazin-3(4H)-one]: the inhibition at 10 µM is 99%.
Next, `N#Cc1cc(Cl)ccc1OCC1CCN(C(=O)c2ccc3c(c2)NC(=O)CO3)CC1` [Example 33, 5-chloro-2-((1-((3-oxo-3,4-dihydro-2H-1,4-benzoxazin-6-yl)carbonyl)piperidin-4-yl)methoxy)benzonitrile]: 99%; `Cc1ccccc1OCC1CCN(C(=O)c2ccc3c(c2)NC(=O)CO3)CC1` [Example 34, 6-((4-((2-methylphenoxy)methyl)piperidin-1-yl)carbonyl)-2H-1,4-benzoxazin-3(4H)-one]: 98%; `Cc1ccc(OCC2CCN(C(=O)c3ccc4c(c3)NC(=O)CO4)CC2)c(C)c1` [Example 35, 6-((4-((2,4-dimethylphenoxy)methyl)piperidin-1-yl)carbonyl)-2H-1,4-benzoxazin-3(4H)-one]: 98%.
For `Cc1ccc(OCC2CCN(C(=O)c3ccc4c(c3)NC(=O)CO4)CC2)c(Cl)c1` [Example 36, 6-((4-((2-chloro-4-methylphenoxy)methyl)piperdin-1-yl)carbonyl)-2H-1,4-benzoxazin-3(4H)-one], the inhibition at 10 µM was found to be 104%.
Regarding `Cc1cc(Cl)ccc1OCC1CCN(C(=O)c2ccc3c(c2)NC(=O)CO3)CC1` [Example 37, 6-((4-((4-chloro-2-methylphenoxy)methyl)piperidin-1-yl)carbonyl)-2H-1,4-benzoxazin-3(4H)-one], the inhibition at 10 µM turned out to be 101%.
With `Cc1ccc(OCC2CCN(C(=O)c3ccc4c(c3)NC(=O)CO4)CC2)c(C)n1` [Example 38, 6-((4-(((2,6-dimethylpyridin-3-yl)oxy)methyl)piperidin-1-yl)carbonyl)-2H-1,4-benzoxazin-3(4H)-one], the inhibition at 10 µM came to 84%.
As for `Cc1cc(C)c(OCC2CCN(C(=O)c3ccc4c(c3)NC(=O)CO4)CC2)cn1` [Example 39], the inhibition at 10 µM is 100%.
For `Cc1ccc(OCC2CCN(C(=O)c3ccc4c(c3)NC(=O)CO4)CC2)c(Cl)n1` [Example 40, 6-((4-(((2-chloro-6-methylpyridin-3-yl)oxy)methyl)piperidin-1-yl)carbonyl)-2H-1,4-benzoxazin-3(4H)-one], the inhibition at 10 µM amounted to 95%.
Take `O=C1COc2ccc(C(=O)N3CCC(COc4ccc(Cl)nc4Cl)CC3)cc2N1` [Example 41, 6-((4-(((2,6-dichloropyridin-3-yl)oxy)methyl)piperidin-1-yl)carbonyl)-2H-1,4-benzoxazin-3(4H)-one]: the inhibition at 10 µM stood at 103%.
Next, `O=C1COc2ccc(C(=O)N3CCC(COc4ccc(Cl)c(F)c4)CC3)cc2N1` [Example 42, 6-((4-((4-chloro-3-fluorophenoxy)methyl)piperidin-1-yl)carbonyl)-2H-1,4-benzoxazin-3(4H)-one]: 99%; `O=C1COc2ccc(C(=O)N3CCC(COc4ccc(Cl)c(Cl)c4)CC3)cc2N1` [Example 43, 6-((4-((3,4-dichlorophenoxy)methyl)piperidin-1-yl)carbonyl)-2H-1,4-benzoxazin-3(4H)-one]: 100%.
